{
  "source": "patent US4388320A",
  "about": "“3-Aminopropoxyaryl derivative in the treatment of tremor” (Sandoz Ltd., priority 1981, dated 1983)",
  "key": {"[1]": {"conditions": "known use; cited from earlier work"}, "[2]": {"assay": "first clinical study, 6 patients with constant essential (familiary) tremor, 4 weeks (Table 1)", "assay_type": "in vivo", "procedure": "In one clinical study 6 patients with constant essential (familiary) tremor were given for 4 weeks once-a-day in the morning a capsule containing 1 to 8 mg of the compound of formula I in hydrogen malonate form. The dosage was increased gradually over the first two weeks of the study."}, "[3]": {"assay": "further, similar clinical study, 4 patients with essential (familiary) tremor (Table 2)", "assay_type": "in vivo", "conditions": "1 to 12 mg per day", "procedure": "The result of a further, similar study with 4 patients with essential (familiary) tremor treated for 4 weeks with 1 to 12 mg per day of the compound of formula I in hydrogen malonate form is indicated in table 2: […]"}, "[4]": {"assay": "another clinical study, 6 patients with essential (familiary) tremor (Table 3)", "assay_type": "in vivo", "conditions": "4 to 12 mg per day"}, "acute toxicity, mouse": {"assay": "acute toxicity, mouse", "conditions": "in vivo, hydrogen malonate form", "text": "(§1) The tolerability of the compound was also studied using standard tests. For example, the acute toxicity of the compound of formula I in hydrogen malonate form is as follows: […]"}, "acute toxicity, rat": {"assay": "acute toxicity, rat", "conditions": "in vivo, hydrogen malonate form", "text": "as §1"}, "acute toxicity, rabbit": {"assay": "acute toxicity, rabbit", "conditions": "in vivo, hydrogen malonate form", "text": "as §1"}, "[5]": {"assay": "tolerability and comparison with other agents in anti-tremor use", "assay_type": "in vivo, patients"}, "[6]": {"assay": "clinical observations, treatment of tremor (overall)", "assay_type": "in vivo, patients"}, "adrenergic β-receptors": {"tested_on": "adrenergic β-receptors", "conditions": "U.K. Patent Specification No. 1,575,510; cited from earlier work"}, "[7]": {"conditions": "U.K. Patent Specification No. 1,575,510; cited from earlier work"}, "[8]": {"tested_on": "lipolysis and glycogenolysis induced by isoproterenol", "conditions": "U.K. Patent Specification No. 1,575,510; cited from earlier work"}, "[9]": {"conditions": "after 2 weeks, total 6 patients, capsule once-a-day, 1 to 8 mg, hydrogen malonate form"}, "[10]": {"conditions": "after 4 weeks, total 6 patients, capsule once-a-day, 1 to 8 mg, hydrogen malonate form"}, "[11]": {"conditions": "4 patients, 4 weeks, hydrogen malonate form"}, "[12]": {"conditions": "6 patients, 4 weeks, hydrogen malonate form"}},
  "note": "“Also recorded” adds a separate entry of the source.",
  "data": [
    {"smiles": "C=CCc1ccccc1OCC(O)CNC(C)C", "note": "(stereo not shown) [alprenolol]", "values": [
      {"measurement": "activity against tremor", "setting": "[1]", "result": "inactive"}
    ]},
    {"smiles": "Cc1cc2c(OCC(CNC(C)(C)C)OC(=O)c3ccccc3)cccc2[nH]1", "note": "(stereo not shown) [compound of formula I, 4(2-benzoyloxy-3-tert-butylaminopropoxy)-2-methylindole]", "values": [
      {"measurement": "improvement in tremor, benefit (in words)", "setting": "[2]; 6 patients, 4 weeks, 1 to 8 mg once-a-day", "result": "all patients gained benefit; also recorded: the degree of improvement was either marked or moderate"},
      {"measurement": "Number of patients with marked (Ma) improvement after 2 weeks", "setting": "[2]; [9]", "result": 2, "unit": "patients"},
      {"measurement": "Number of patients with moderate (Mo) improvement after 2 weeks", "setting": "[2]; [9]", "result": 4, "unit": "patients"},
      {"measurement": "Number of patients with marked (Ma) improvement after 4 weeks", "setting": "[2]; [10]", "result": 3, "unit": "patients"},
      {"measurement": "Number of patients with moderate (Mo) improvement after 4 weeks", "setting": "[2]; [10]", "result": 3, "unit": "patients"},
      {"measurement": "hypotension and bradycardia", "setting": "[2]; during treatment", "result": "No hypotension and no bradycardia"},
      {"measurement": "side effects", "setting": "[2]; during treatment", "result": "remarkably free of side effects"},
      {"measurement": "duration of beneficial effect", "setting": "[2]; once-a-day in the morning", "result": "the beneficial effect lasted the whole day"},
      {"measurement": "hypotension and bradycardia", "setting": "[3]", "result": "no hypotension and no bradycardia"},
      {"measurement": "side effects", "setting": "[3]", "result": "exceptionally few side effects"},
      {"measurement": "time to first observed improvement", "setting": "[3]", "result": "already after one week of treatment"},
      {"measurement": "time to maximum improvement", "setting": "[3]", "result": 2, "unit": "weeks"},
      {"measurement": "improvement (in words)", "setting": "[3]; 4 patients, 4 weeks", "result": "marked improvement was observed in all 4 patients"},
      {"measurement": "Number of patients showing good improvement", "setting": "[3]; [11]", "result": 2, "unit": "patients"},
      {"measurement": "Number of patients showing very good improvement", "setting": "[3]; [11]", "result": 2, "unit": "patients"},
      {"measurement": "hypotension and bradycardia", "setting": "[4]", "result": "no hypotension and no bradycardia"},
      {"measurement": "improvement (in words)", "setting": "[4]; 6 patients, 4 weeks", "result": "These results were confirmed; also recorded: very good or good improvement was observed in all patients"},
      {"measurement": "Number of patients showing good improvement", "setting": "[4]; [12]", "result": 3, "unit": "patients"},
      {"measurement": "Number of patients showing very good improvement", "setting": "[4]; [12]", "result": 3, "unit": "patients"},
      {"measurement": "LD50", "setting": "acute toxicity, mouse; iv, read-out: LD50 i.v.", "result": 11, "unit": "mg/kg"},
      {"measurement": "LD50", "setting": "acute toxicity, mouse; po, read-out: LD50 p.o.", "result": 242, "unit": "mg/kg"},
      {"measurement": "LD50", "setting": "acute toxicity, rat; iv, read-out: LD50 i.v.", "result": 9, "unit": "mg/kg"},
      {"measurement": "LD50", "setting": "acute toxicity, rat; po, read-out: LD50 p.o.", "result": 1010, "unit": "mg/kg"},
      {"measurement": "LD50", "setting": "acute toxicity, rabbit; iv, read-out: LD50 i.v.", "result": 7, "unit": "mg/kg"},
      {"measurement": "LD50", "setting": "acute toxicity, rabbit; po, read-out: LD50 p.o.", "result": 334, "unit": "mg/kg"},
      {"measurement": "hypotension or bradycardia", "setting": "[5]; in vivo", "result": "not induce hypotension or bradycardia"},
      {"measurement": "influence on P-Q wave in the electrocardiogramm", "setting": "[5]; in vivo", "result": "does not significantly influence the P-Q wave"},
      {"measurement": "overall safety", "setting": "[5]; in vivo", "result": "exceptionally safe"},
      {"measurement": "effect on blood pressure and heart rate", "setting": "[5]; patients with underlying hypertension or tachycardia", "result": "normalization of blood pressure and heart rate"},
      {"measurement": "onset of anti-tremor activity compared with anticholinergics", "setting": "[5]; versus anticholinergics", "result": "more rapid onset of activity"},
      {"measurement": "tolerability compared with anticholinergics", "setting": "[5]; versus anticholinergics", "result": "better tolerated than anticholinergics"},
      {"measurement": "tolerability compared with other β-adrenoceptor blocking agents", "setting": "[5]; versus e.g. propranolol", "result": "better tolerated than other β-adrenoceptor blocking agents, e.g. propranolol"},
      {"measurement": "usefulness / improvement in treatment of tremor (in words)", "setting": "[6]", "result": "impressive improvement; also recorded: useful in the treatment of tremor, especially of essential (familiary) tremor"},
      {"measurement": "blocking effect on the adrenergic β-receptors", "setting": "adrenergic β-receptors", "result": "blocking effect on the adrenergic β-receptors"},
      {"measurement": "antiarrhythmic effect", "setting": "[7]", "result": "antiarrhythmic effect"},
      {"measurement": "inhibition of lipolysis and glycogenolysis", "setting": "[8]", "result": "inhibit lipolysis and glycogenolysis induced by isoproterenol"}
    ]},
    {"smiles": "C=CCOc1ccccc1OCC(O)CNC(C)C", "note": "(stereo not shown) [oxprenolol]", "values": [
      {"measurement": "activity against tremor", "setting": "[1]", "result": "inactive"}
    ]},
    {"smiles": "CC(C)NCC(O)COc1cccc2ccccc12", "note": "(stereo not shown) [propranolol]", "values": [
      {"measurement": "activity against tremor", "setting": "[1]", "result": "conflicting results"}
    ]},
    {"smiles": "CC(C)(C)NC[C@H](O)COc1nsnc1N1CCOCC1", "note": "[timolol]", "values": [
      {"measurement": "activity against tremor", "setting": "[1]", "result": "inactive"}
    ]}
  ]
}
